Results: PubChem BioAssay AID504703 (Southern Research Specialized Biocontainment Screening …, 2011)
“And” between values parts separate entries of the source, which are not always exact repeats. Equal values may be shown once. The source made the active and inactive calls. No rule for the calls is given here.

Test system: M. tuberculosis H37Rv growth inhibition with meropenem
Assay: M. tuberculosis growth inhibition, H37Rv, set 2, dose response (AID 504703);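 also: growth ran 7 days at 37 °C then overnight with Alamar Blue before reading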
[1] = M. tuberculosis H37Rv growth inhibition, measured here: IC50 without meropenem
[2] = M. tuberculosis H37Rv growth inhibition, measured here: IC90 without meropenem
[3] = measured here: IC90 with meropenem

Row | Compound | IC50 [1] | IC90 [2] [µM] | IC50 | IC90 [3] [µM]
1 | Cc1cc2ccccc2n1-c1ccccc1 | > 25 µM | > 25 | – | –
2 | Cc1ccccc1OCC(=O)Nc1noc(-c2ccccc2)n1 | > 25 µM | > 25 | – | –
3 | CCOc1ccc2[nH]ccc2c1 | > 25 µM | > 25 | – | –
4 | OCCCc1cn(-c2ccccc2)c2ccccc12 | > 25 µM | > 25 | 14.2 µM (inactive) | > 25
5 | CC(=O)Nc1ccc2nc(NC(=O)COc3ccccc3)sc2c1 | > 25 µM | > 25 | – | –
6 | N/C(=N\c1nc2ccccc2o1)NC(=O)c1ccccc1Br | 8.26 µM | > 25 | – | > 25
7 | CCOc1ccc2c(ccn2-c2ccccc2)c1 | > 25 µM | > 25 | – | –
8 | O=C(COC(=O)C1CC1)c1c[nH]c2ccccc12 | 1.15 µM and 2.08 µM | > 6.25 | – | > 25
9 | O=C(O)CCC(=O)Nc1nc2ccccc2s1 | > 25 µM | > 25 | – | –
10 | Cc1c(OCc2ccc(C(=O)O)cc2)ccc2c(-c3ccccc3)cc(=O)oc12 | > 25 µM | > 25 | – | > 25
11 | CCOc1ccc2nc(NC(=O)Cc3ccc(OC)cc3)sc2c1 | > 25 µM | > 25 | – | –
12 | COC(=O)c1c(C)n(-c2ccccc2)c2ccc(O)cc12 | > 25 µM | > 25 | 8.43 µM (inactive) and > 12.5 µM (inactive) | > 18.8
13 | CCC(CC)c1nnc(NC(=O)c2ccc(N3CCCCC3)c([N+](=O)[O-])c2)s1 | > 25 µM | > 25 | – | –
14 | COc1cccc(-c2ccc(-c3noc(-c4ccccc4F)n3)c(OC)n2)c1 | > 25 µM | > 25 | > 25 µM (inactive) | > 25
15 | N/C(=N\c1nc2ccccc2o1)NC(=O)c1ccccc1F | > 25 µM | > 25 | – | –
16 | CCCN1CC(O)=C(c2nc3ccccc3s2)C1=N | > 25 µM | > 25 | – | –
17 | c1ccc(-c2cc(N3CCOCC3)nc3ccccc23)cc1 | > 25 µM | > 25 | 10 µM (inactive) | > 18.8
18 | N/C(=N\c1nc2cc(Cl)ccc2o1)NC(=O)c1ccccc1 | > 25 µM | > 25 | – | –
19 | Cc1cc(C)c(OCC(=O)Nc2nc3ccccc3s2)c(Cl)c1 | > 25 µM | > 25 | – | –
20 | O=C(COc1ccc(Cl)cc1)Nc1nc2ccc(F)cc2s1 | > 25 µM | > 25 | – | –
21 | c1ccc(OCc2nnc(-c3ccccc3)o2)cc1 | > 18.8 µM and 15.3 µM | > 25 | 15 µM (inactive) | > 25

Row | Compound | IC50 [1] | IC90 [2] [µM] | IC50 | IC90 [3] [µM]
22 | CCOc1ccc(NC(=O)COc2ccc(C)cc2C)cc1 | > 25 µM | > 25 | – | –
23 | Cc1ccc(OCC(=O)Nc2nc3ccc(F)cc3s2)cc1 | > 25 µM | > 25 | – | –
24 | COc1ccc2oc(C(=O)Nc3nc4ccccc4[nH]3)c(C)c2c1 | – | > 25 | 10.5 µM (inactive) | > 25
25 | N/C(=N\c1nc2ccccc2o1)NC(=O)c1ccc(F)cc1 | 21.6 µM | > 25 | 9.64 µM (inactive) | > 25
26 | CCC(=O)N/C(N)=N/c1nc2ccccc2o1 | > 25 µM | > 25 | – | –
27 | CC(=O)c1c(C)n(-c2ccccc2)c2ccc(OC(C)C)cc12 | > 25 µM | > 25 | – | –
28 | CC(=O)c1c(C)n(-c2ccccc2)c2ccccc12 | > 25 µM | > 25 | 11.6 µM (inactive) | > 25
29 | Cc1ccc(OC(C)C(=O)Nc2ncccn2)c(C)c1 (configuration not stated) | > 25 µM | > 25 | – | –
30 | CCOc1ccc2c(c1)c(C(C)=O)c(C)n2-c1ccccc1C | 23.2 µM | > 25 | – | 12.1
31 | Cc1cccnc1NC(=S)NC(=O)c1cncc(Br)c1 | 4.21 µM | > 25 | 2.71 µM (inactive) | > 25
32 | CCOC(=O)c1c(C)[nH]c2ccccc12 | > 25 µM | > 25 | – | –
33 | O=C(CC12CC3CC(CC(C3)C1)C2)NCc1ccc(F)cc1 | > 25 µM | > 25 | – | –
34 | COc1ccc2nc(NC(=O)COc3ccccc3)sc2c1 | > 25 µM | > 25 | – | –
35 | CC(=O)c1c(C)n(-c2ccccc2)c2ccc(OS(=O)(=O)C(F)(F)F)cc12 | > 25 µM | > 25 | > 25 µM (inactive) | > 25
36 | CC(=O)c1c(C)n(-c2ccccc2C)c2ccc(O)cc12 | > 25 µM | > 25 | – | –
37 | CC(C)Cn1c2c(c(O)c(C(=O)Nc3nccs3)c1=O)CCCC2 | > 25 µM | > 25 | – | –
38 | CCOc1ccc2c(c1)c(CC)c(C)n2-c1ccccc1 | > 25 µM | > 25 | – | > 25
39 | CCOc1ccc2nc(NC(=O)COc3ccc(Cl)c(C)c3)sc2c1 | > 25 µM | > 25 | – | –
40 | O=C(OC(C(=O)Nc1ccc(Cl)cc1C(F)(F)F)c1ccccc1)C1=COCCO1 (configuration not stated) | 16.9 µM | > 25 | – | > 25
41 | Cc1ccc(OCC(=O)Nc2ccc(Cl)cc2)c(C)c1 | > 25 µM | > 25 | – | –
42 | Cc1cc2cc(Cl)ccc2[nH]1 | > 25 µM | > 25 | – | –

Row | Compound | IC50 [1] | IC90 [2] [µM] | IC50 | IC90 [3] [µM]
43 | CN(NC(=O)c1c(Cl)cccc1Cl)c1cccc(Cl)n1 | > 25 µM | > 25 | 15.5 µM (inactive) | > 25
44 | CC(=O)c1c(C)n(-c2cccc(Cl)c2)c2ccc(O)cc12 | > 25 µM | > 25 | – | –
45 | CCOc1ccc2nc(NC(=O)C3(c4ccccc4)CCCC3)sc2c1 | 2.08 µM | 8.95 | 1.2 µM (inactive) | 4.16
46 | CCOc1ccc2nc(NC(=O)c3cnccn3)sc2c1 | > 25 µM | > 25 | – | –
47 | Cc1cccc(C)c1OCC(=O)Nc1nc2ccccc2s1 | > 25 µM | > 25 | – | –
48 | Oc1ccc2[nH]ccc2c1 | > 25 µM | > 25 | – | –
49 | CC(=O)c1c(C)n(-c2ccccc2)c2ccc(O)cc12 | > 25 µM | > 25 | 20.1 µM (inactive) | > 25
50 | CC(Oc1ccc(Cl)cc1)C(=O)Nc1nc2ccccc2s1 (configuration not stated) | > 25 µM | > 25 | – | –
51 | COc1ccccc1C(=O)N/C(N)=N/c1nc2ccccc2o1 | > 25 µM | > 25 | – | –
52 | CC(=O)c1c(C)n(-c2ccc(C)cc2)c2ccc(O)cc12 | > 25 µM | > 25 | – | –
53 | CCOc1ccc2[nH]c(C)cc2c1 | > 25 µM | > 25 | – | –
54 | Cc1ccc(OCC(=O)Nc2cccc3ncccc23)c(C)c1 | > 25 µM | > 25 | – | –
55 | Cc1cc2cc(F)ccc2n1-c1ccccc1 | > 25 µM | > 25 | – | –
56 | COc1cccc(NC(=S)Nc2cc(C)cc(C)n2)c1 | 14.4 µM | > 25 | 7.2 µM (inactive) | > 25
57 | O=C(Cc1ccccc1Cl)Nc1nc2ccccc2[nH]1 | > 18.8 µM and 16.4 µM | > 25 | 18.9 µM (inactive) | > 25
58 | Cc1ccc(OCC(=O)Nc2nnn(C)n2)c(C)c1 | > 25 µM | > 25 | – | –
59 | O=C(COc1ccc2ccccc2c1)Nc1nc2ccccc2[nH]1 | > 18.8 µM and 15.5 µM | > 25 | > 18.8 µM (inactive) and 8.87 µM (inactive) | > 25
60 | CCOC(=O)c1cnc2cc(-c3ccc(C(C)(C)C)cc3)nn2c1N | 1.15 µM and 4.11 µM | > 25 | 1.99 µM (inactive) | > 25
61 | O=C(COc1ccc2c3c(c(=O)oc2c1)CCC3)Nc1nc2ccccc2[nH]1 | > 25 µM | > 25 | – | –
62 | Cc1cc2cc(F)ccc2[nH]1 | > 25 µM | > 25 | – | –
63 | COc1ccc2c(c1)c(C(C)=O)c(C)n2-c1ccccc1 | > 25 µM | > 25 | – | > 18.8

Row | Compound | IC50 [1] | IC90 [2] [µM] | IC50 | IC90 [3] [µM]
64 | COc1cccc(NC(=O)C2CC2)c1 | > 25 µM | > 25 | – | > 25
65 | O=C(CSc1n[nH]c(=O)n1C1CC1)c1ccc2c(c1)OCCO2 | 10.8 µM | > 25 | 4.57 µM (inactive) | > 25
66 | COC(=O)c1sc(-c2ccc(C(C)(C)C)cc2)cc1NC(=O)CCC(=O)O | 13.5 µM and 9.45 µM | > 25 | 7.32 µM (inactive) | > 25
67 | O=C(COC(=O)C1=COCCO1)Nc1ccc2c(c1)OCO2 | > 25 µM | > 25 | – | > 25
68 | COc1ccc2nc(NC(=O)COc3ccc(C)cc3)sc2c1 | > 25 µM | > 25 | – | –
69 | CC(Oc1ccccc1)C(=O)Nc1nc2ccc(S(C)(=O)=O)cc2s1 (configuration not stated) | > 25 µM | > 25 | – | –
70 | CCOc1ccc2c(c1)c(C(C)=O)c(C)n2Cc1ccco1 | > 25 µM | > 25 | – | –
71 | COC(=O)c1c(C)[nH]c2ccccc12 | > 25 µM | > 25 | – | –
72 | COc1ccc(C(=O)Nc2ccc3nc(N4CCCCC4)cc(C)c3c2)c(OC)c1 | > 25 µM | > 25 | 17.6 µM (inactive) | > 25
73 | CC(=O)Nc1ccc2nc(NC(=O)Cc3ccccc3)sc2c1 | > 25 µM | > 25 | – | –
74 | COc1ccc2c(c1)cc(C)n2-c1ccccc1 | > 25 µM | > 25 | – | > 25
75 | O=C(Cc1csc(-c2ccccc2F)n1)Nc1nc2ccccc2[nH]1 | > 25 µM | > 25 | – | –
76 | S=C(Nc1ccccc1)Nc1ccc(Cl)cn1 | > 18.8 µM and 17.3 µM | > 25 | – | > 25
77 | COC(=O)c1c(C)[nH]c2ccc(Cl)cc12 | > 25 µM | > 25 | – | –
78 | CCOC(=O)COc1nc(-c2ccc(Cl)cc2)cc(-c2ccco2)c1C#N | > 25 µM | > 25 | – | > 25
79 | Cc1ccccc1OCC(=O)Nc1ncccn1 | > 25 µM | > 25 | – | –
80 | CCOc1ccc2nc(NC(=O)COc3ccc(F)cc3)sc2c1 | > 25 µM | > 25 | – | –
81 | COc1ccc2[nH]c(C)cc2c1 | > 25 µM | > 25 | – | –
82 | CCOc1ccc2nc(NC(=O)C(C)Oc3ccccc3F)sc2c1 (configuration not stated) | > 25 µM | > 25 | – | –
83 | CCOc1ccc2nc(NC(=O)COc3ccccc3)sc2c1 | > 25 µM | > 25 | – | –
